Assay results reported in patent publication US11667602B2, “Compounds and their use” (AstraZeneca AB, priority 2020, dated 2023).

Target: T1, human RXFP1 (Homo sapiens, UniProt Q9HBX9)
T1 sequence (Q9HBX9 1-757): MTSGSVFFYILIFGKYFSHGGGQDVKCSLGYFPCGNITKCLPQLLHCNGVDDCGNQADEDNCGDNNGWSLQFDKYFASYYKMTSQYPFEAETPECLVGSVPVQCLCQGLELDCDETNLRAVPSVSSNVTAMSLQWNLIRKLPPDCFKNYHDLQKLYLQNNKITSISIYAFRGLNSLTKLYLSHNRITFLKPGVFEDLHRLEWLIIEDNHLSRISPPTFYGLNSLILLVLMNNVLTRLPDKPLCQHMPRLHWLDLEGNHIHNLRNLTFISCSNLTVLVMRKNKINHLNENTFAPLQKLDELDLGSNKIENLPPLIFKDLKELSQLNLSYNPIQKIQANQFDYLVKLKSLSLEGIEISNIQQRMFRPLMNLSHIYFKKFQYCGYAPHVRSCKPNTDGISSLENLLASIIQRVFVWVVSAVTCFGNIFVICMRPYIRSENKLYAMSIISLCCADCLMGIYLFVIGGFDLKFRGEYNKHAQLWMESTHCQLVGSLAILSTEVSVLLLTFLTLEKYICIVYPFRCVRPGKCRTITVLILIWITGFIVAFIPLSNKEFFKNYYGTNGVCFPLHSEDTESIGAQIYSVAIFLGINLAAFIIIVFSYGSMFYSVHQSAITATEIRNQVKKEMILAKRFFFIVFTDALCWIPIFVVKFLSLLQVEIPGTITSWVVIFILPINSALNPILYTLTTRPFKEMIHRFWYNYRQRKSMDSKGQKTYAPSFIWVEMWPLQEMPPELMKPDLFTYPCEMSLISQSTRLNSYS
Assay: RXFP1 Hu cAMP (Test A)
Type: cell-based
Design: expressed in transfected cells; host or cells: Jump-In T-REx CHO-K1 cells (ThermoFisher), induced with 10 ng/ml doxycycline for 24 h
Conditions: RXFP1 Hu cAMP; for EC50: read-out: Test A EC50
Summary of the method: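 Competitive HTRF cAMP readout (2 h, room temperature) in CHO-K1 cells stably expressing human RXFP1, induced with 10 ng/ml doxycycline for 24 h; IBMX 0.5 mM final.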

SMILES | Test A Sinf | EC50
COc1cc(F)c(O[C@H]2CC[C@@](O)(C(=O)O)CC2)cc1C(=O)N[C@@H]1[C@H]2CC[C@H](C2)[C@@H]1C(=O)NCC1(C)CCC1 [Example 507, (1R,4r)-4-(2-Fluoro-4-methoxy-5-(((1S,2R,3S,4R)-3-(((1-methylcyclobutyl)methyl)carbamoyl)bicyclo[2.2.1]heptan-2-yl)carbamoyl)phenoxy)-1-hydroxycyclohexane-1-carboxylic acid] | 118% | 540 nM
COc1cc(F)c(O[C@H]2CC[C@@](OC)(C(=O)O)CC2)cc1C(=O)N[C@@H]1[C@@H]2CC[C@@H](C2)[C@@H]1C(=O)Nc1cccc(S(=O)(=O)C(F)(F)F)c1 [Example 508, (1R,4r)-4-(2-Fluoro-4-methoxy-5-(((1R,2R,3S,4S)-3-((3-((trifluoromethyl)sulfonyl)phenyl)carbamoyl)bicyclo[2.2.1]heptan-2-yl)carbamoyl)phenoxy)-1-methoxycyclohexane-1-carboxylic acid] | 112% | 13 nM
COc1cc(F)c(O[C@H]2CC[C@@H](C(=O)O)CC2)cc1C(=O)N[C@H]1[C@H]2CC[C@H](C2)[C@H]1C(=O)Nc1cccc(S(F)(F)(F)(F)F)c1 [Example 510, (1R,4s)-4-(2-Fluoro-4-methoxy-5-(((1S,2S,3R,4R)-3-((3-(pentafluoro-6-sulfaneyl)phenyl)carbamoyl)bicyclo[2.2.1]heptan-2-yl)carbamoyl)phenoxy)cyclohexane-1-carboxylic acid] | 63% | 1600 nM
COc1cc(F)c(O[C@H]2CC[C@@H](C(N)=O)CC2)cc1C(=O)N[C@@H]1[C@@H]2CC[C@@H](C2)[C@@H]1C(=O)Nc1cccc(S(F)(F)(F)(F)F)c1 [Example 511, (1S,2S,3R,4R)-3-(5-(((1s,4S)-4-Carbamoylcyclohexyl)oxy)-4-fluoro-2-methoxybenzamido)-N-(3-(pentafluoro-A6-sulfaneyl)phenyl)bicyclo[2.2.1]heptane-2-carboxamide] | 117% | 37 nM
COc1cc(F)c(OC2CCC(C)(C(=O)O)CC2)cc1C(=O)NC1COCC1C(=O)Nc1ccc(F)c(S(F)(F)(F)(F)F)c1 [Example 564, (1R,4s)-4-(2-Fluoro-5-(((3S*,4R*)-4-((4-fluoro-3-(pentafluoro-λ6-sulfaneyl)phenyl)carbamoyl)tetrahydrofuran-3-yl)carbamoyl)-4-methoxyphenoxy)-1-methylcyclohexane-1-carboxylic acid] |  | > 40000 nM
COc1cc(F)c(OC2CCC(C)(C(=O)O)CC2)cc1C(=O)NC1COCC1C(=O)NCC1(C)CCC1 [Example 576, (1R,4s)-4-(2-Fluoro-4-methoxy-5-(((3S*,4R*)-4-(((1-methylcyclobutyl)methyl)carbamoyl)tetrahydrofuran-3-yl)carbamoyl)phenoxy)-1-methylcyclohexane-1-carboxylic acid] | 118% | 
COc1cc(F)c(OC2CCC(O)(C(=O)O)CC2)cc1C(=O)NC1C2CCC(C2)C1C(=O)Nc1cccc(S(=O)(=O)C(F)(F)F)c1 [Example 582, (1R,4r)-4-(2-Fluoro-4-methoxy-5-(((1R*,2R*,3S*,4S*)-3-((3-((trifluoromethyl)sulfonyl)phenyl)carbamoyl)bicyclo[2.2.1]heptan-2-yl)carbamoyl)phenoxy)-1-hydroxycyclohexane-1-carboxylic acid] | 104% | 29 nM
COc1cc(F)c(O[C@H]2CC[C@@](C)(C(=O)O)CC2)cc1C(=O)N[C@@H]1[C@H]2CC[C@H](C2)[C@@H]1C(=O)NCC1(OC)CCC1 [Example 593, (1S,4s)-4-(2-Fluoro-4-methoxy-5-(((1S,2R,3S,4R)-3-(((1-methoxycyclobutyl)methyl)carbamoyl)bicyclo[2.2.1]heptan-2-yl)carbamoyl)phenoxy)-1-methylcyclohexane-1-carboxylic acid] | 118% | 520 nM
COCC1(CNC(=O)[C@H]2[C@@H]3CC[C@@H](C3)[C@H]2NC(=O)c2cc(O[C@H]3CC[C@@](C)(C(=O)O)CC3)c(F)cc2OC)CCC1 [Example 594] | 96% | 530 nM
COc1cc(F)c(O[C@H]2CC[C@@](C)(C(=O)O)CC2)cc1C(=O)N[C@@H]1[C@H]2CC[C@H](C2)[C@@H]1C(=O)NCC1(C#N)CCC1 [Example 595] | 116% | 570 nM
COc1cc(F)c(O[C@H]2CC[C@@](C)(C(=O)O)CC2)cc1C(=O)N[C@@H]1[C@H]2CC[C@H](C2)[C@@H]1C(=O)NCCC(F)(F)F [Example 596] | 105% | 
COc1cc(F)c(O[C@H]2CC[C@@](C)(C(=O)O)CC2)cc1C(=O)N[C@@H]1[C@H]2CC[C@H](C2)[C@@H]1C(=O)N[C@H](C)C(F)(F)F [Example 597] | 106% | 400 nM
COc1cc(F)c(O[C@H]2CC[C@@](C)(C(=O)O)CC2)cc1C(=O)N[C@@H]1[C@H]2CC[C@H](C2)[C@@H]1C(=O)NC1CCC1 [Example 598] | 99% | 890 nM
COc1cc(F)c(O[C@H]2CC[C@@](C)(C(=O)O)CC2)cc1C(=O)N[C@@H]1[C@H]2CC[C@H](C2)[C@@H]1C(=O)NC1CCCC1 [Example 599] | 91% | 260 nM
COc1cc(F)c(O[C@H]2CC[C@@](C)(C(=O)O)CC2)cc1C(=O)N[C@@H]1[C@H]2CC[C@H](C2)[C@@H]1C(=O)NC12CC(C1)C2 [Example 600] | 104% | 140 nM
COc1cc(F)c(O[C@H]2CC[C@@](C)(C(=O)O)CC2)cc1C(=O)N[C@@H]1[C@H]2CC[C@H](C2)[C@@H]1C(=O)N[C@@H](C)C(F)(F)F [Example 601] | 116% | 
COc1cc(F)c(O[C@H]2CC[C@@](C)(C(=O)O)CC2)cc1C(=O)N[C@@H]1[C@H]2CC[C@H](C2)[C@@H]1C(=O)NC(C)(C)C [Example 602] | 100% | 250 nM
COc1cc(F)c(O[C@H]2CC[C@@](C)(C(=O)O)CC2)cc1C(=O)N[C@@H]1[C@H]2CC[C@H](C2)[C@@H]1C(=O)NC(C)(C)C(F)(F)F [Example 603] | 99% | 94 nM
COc1cc(F)c(O[C@H]2CC[C@@](C)(C(=O)O)CC2)cc1C(=O)N[C@@H]1[C@H]2CC[C@H](C2)[C@@H]1C(=O)N[C@H]1CCN(S(=O)(=O)C(F)(F)F)C1 [Example 606] | 90% | 420 nM
COc1cc(F)c(O[C@H]2CC[C@@](C)(C(=O)O)CC2)cc1C(=O)N[C@@H]1[C@H]2CC[C@H](C2)[C@@H]1C(=O)N[C@H]1CCCN(S(=O)(=O)C(F)(F)F)C1 [Example 607] | 92% | 160 nM
COc1cc(F)c(O[C@H]2CC[C@@](C)(C(=O)O)CC2)cc1C(=O)N[C@@H]1[C@H]2CC[C@H](C2)[C@@H]1C(=O)NCC1(F)CCC1 [Example 609] | 108% | 400 nM
COc1cc(F)c(O[C@H]2CC[C@@](C)(C(=O)O)CC2)cc1C(=O)N[C@@H]1[C@H]2CC[C@H](C2)[C@@H]1C(=O)NCC(C)(C)OC [Example 610] | 105% | 
COc1cc(F)c(O[C@H]2CC[C@@](C)(C(=O)O)CC2)cc1C(=O)N[C@@H]1[C@H]2CC[C@H](C2)[C@@H]1C(=O)NCC(C)(C)O [Example 611] |  | > 40000 nM
COc1cc(F)c(O[C@H]2CC[C@@](C)(C(=O)O)CC2)cc1C(=O)N[C@@H]1[C@H]2CC[C@H](C2)[C@@H]1C(=O)NCC(C)(C)CO [Example 612] | 119% | 
